Measurements published in patent US5202348A, “Thiarubrine antifungal agents” (The University of British Columbia, priority 1990, dated 1993).
Values after ≈ are worked out from the molar mass of the structure shown. Like-named read-outs stand apart in the source and are kept apart here.

Experiments:
Candida pseudotropicalis = test: Minimal inhibitory concentration, agar dilution method; format: cell-based; settings: Kluyveromyces marxianus, 21 h; No. 10
Method: (§1) Results were obtained by agar dilution method. Mueller Hinton agar plates (pH - 7.4) with different doses of ThD were inoculated with 10^4 cfu/spot and incubated 21 hours at 34°. MIC is the lowest concentration with no growth.

Zanthomonas maltophilia = test: as above; format: cell-based; settings: 21 h; No. 15, strain 3E6
Method: as §1

Acinetobacter = test: as above; format: cell-based
Method: as §1

Klebsiella sp. = test: as above; format: cell-based; settings: 21 h, No. 31
Method: as §1

Enterobacter cloacoe = test: as above; format: cell-based
Method: as §1

[1] = test system: Enterococcus (gentamycin res.); test: as above; format: cell-based; settings: 21 h, read-out: Minimal Inhibitory Concentration
Method: as §1

Serratia marscenes = test: as above; format: cell-based; settings: 21 h, No. 27, strain 3A3
Method: as §1

Enterobacter sp. = test: as above; format: cell-based; settings: 21 h, No. 26, strain 9E7
Method: as §1

Listeria monocytogenes = test: as above; format: cell-based
Method: as §1

Klebsiella pneumoniae = test: as above; format: cell-based; settings: ATCC33495, 21 h, No. 7, ATCC 33495
Method: as §1

Enterococcus faecalis = test: as above; format: cell-based; settings: 21 h
Method: as §1

Staphylococcus epidermis = test: as above; format: cell-based; settings: ATCC29972, 21 h, No. 8, ATCC 29972
Method: as §1

Pseudomonas aeruginosa = test: as above; format: cell-based
Method: as §1

Escherichia coli = test: as above; format: cell-based; settings: ATCC25992, 21 h, read-out: Minimal Inhibitory Concentration
Method: as §1

Cryptococcus neoformans = test: as above; format: cell-based; settings: 21 h, No. 9, F548
Method: as §1

Staphylococcus aureus = test: as above; format: cell-based; settings: for MIC: Staphylococcus aureus, read-out: Minimal Inhibitory Concentration
Method: as §1

Candida [2] = test: as above; format: cell-based; settings: 21 h
Method: as §1

Enterobacter aerogenes = test: as above; format: cell-based; settings: Klebsiella aerogenes, ATCC35029, 21 h; No. 6, ATCC 35029
Method: as §1

Streptococcus faecalis = test: as above; format: cell-based; settings: Enterococcus faecalis, ATCC29212, 21 h; No. 2, ATCC 29212
Method: as §1

Aspergillus [3] = test: as above; format: cell-based; settings: 21 h
Method: as §1

[4] = Stability / decomposition of thiarubrines; settings: under light
[5] = Growth inhibition of 3T3 during 24 hours exposure; format: cell-based, Mouse; settings: mouse, 3t3 cells; Table 2; read-out: Toxicity Index, LC50 3T3 / LC50 C. albicans
Method: (§2) 3T3 = Mouse fibroblasts
(§3) Doses inhibiting growth in 50% were estimated by plotting concentration o
(§4) a logarithmic scale and percent of growth inhibition for 24 hours exposur
(§5) on a probability scale.

3T3 = test: Growth inhibition of 3T3 during 24 hours exposure; format: cell-based, Mouse; settings: Mus musculus, NIH3T3; 24 hours exposure; Table 1; read-out: Concentration causing 50% growth inhibition
Method: as §2, §3, §4, §5

E. coli = test: Growth inhibition of E. coli during 24 hours exposure; format: cell-based, Escherichia coli; settings: Escherichia coli; 24 hours exposure; Table 4; read-out: Minimal concentration causing 50% growth inhibition
Method: as §3, §4, §5

C. albicans [6] = test: Temperature and time dependent degradation of ThD in water solution (LC50 on C. albicans); format: cell-based; settings: Candida albicans
From the text: (§6) Data on degradation of Thiarubrine D (ThD) expressed as changes of concentration required to inhibit growth of C. albicans in 50% during 24 hrs. exposure (Lc50 24 hrs.).

bacteria = test: Anti-bacterial activity (summary); format: cell-based; settings: Table 14
Candida [7] = test: Anti-Candida activity (summary); format: cell-based; settings: Table 14;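 further: Letter grades where Y means active and y means less active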
C. albicans [8] = test: Degradation of ThD under exposure to bench cool white light (LC50 on C. albicans); format: cell-based; settings: Candida albicans
From the text: as §6

C. albicans [9] = test: LC50 (24 hrs.), doses required to inhibit growth in 50%, different method; format: cell-based, Candida albicans
From the text: Doses Required to Inhibit Growth of C. albicans
in 50% During 24 hrs. (ng/ml)

Aspergillus [10] = test: Anti-Aspergillus activity (summary); format: cell-based; settings: Table 14;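 further: Letter grades where Y means active and y means less active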
C. albicans [11] = test: Growth inhibition of C. albicans during 24 hours exposure; format: cell-based, Candida albicans; settings: Candida albicans, 24 hours exposure
Method: as §3, §4, §5

`CC#CC1=CC=C(C#CC#CC2CO2)SS1` (centres unmarked) [Thiarubrine D] gave an MIC (Candida pseudotropicalis) of 10 µg/mL (≈ 40.9 µM), an MIC (Zanthomonas maltophilia) of 10 µg/mL (≈ 40.9 µM) and an MIC (Acinetobacter; Acinetobacter, 21 h, No. 17, strain C42) of 1 µg/mL (≈ 4.09 µM). The “Minimal Inhibitory Concentration” value (Acinetobacter; No. 18, strain 6C10) was 1,000 ng/ml, the MIC (Klebsiella sp.) was 1 µg/mL (≈ 4.09 µM) and the MIC (Enterobacter cloacoe; Enterobacter, 21 h, No. 19, strain 1A5) was 1 µg/mL (≈ 4.09 µM). For the same compound, the “Minimal Inhibitory Concentration” value (Enterobacter cloacoe; No. 20, strain 9E5) was 1,000 ng/ml, the MIC [1] was 0.01 µg/mL (≈ 0.0409 µM) and the MIC (Serratia marscenes) was 10 µg/mL (≈ 40.9 µM). For the same compound, the MIC (Enterobacter sp.) was 10 µg/mL (≈ 40.9 µM), the MIC (Listeria monocytogenes; Listeria monocytogenes, 21 h, No. 28, strain 106) was 10 µg/mL (≈ 40.9 µM) and the “Minimal Inhibitory Concentration” value (Listeria monocytogenes; No. 29, strain 301) was 10,000 ng/ml. For the same compound, the MIC (Klebsiella pneumoniae) was 10 µg/mL (≈ 40.9 µM), the MIC (Enterococcus faecalis; No. 30, strain 1A3) was 10 µg/mL (≈ 40.9 µM) and the MIC (Enterococcus faecalis; No. 35, strain 207) was 1 µg/mL (≈ 4.09 µM). The MIC (Staphylococcus epidermis) was 10 µg/mL (≈ 40.9 µM), the MIC (Pseudomonas aeruginosa; 21 h, No. 12, strain 141) was over 10 µg/mL and the MIC (Pseudomonas aeruginosa; 21 h, No. 13, strain 205) was over 10 µg/mL. For the same compound, the MIC (Pseudomonas aeruginosa; 21 h, No. 14, strain 3E5) was 10 µg/mL (≈ 40.9 µM), the MIC (Pseudomonas aeruginosa; ATCC27853, 21 h, No. 4, ATCC 27853) was 10 µg/mL (≈ 40.9 µM) and the MIC (Escherichia coli) was 1 µg/mL (≈ 4.09 µM). The MIC (Cryptococcus neoformans) was 0.064 µg/mL (≈ 0.262 µM), the “Minimal Inhibitory Concentration” value (Staphylococcus aureus; No. 16, strain B4287 (metacylliu res.)) was 10,000 ng/ml and the MIC (Staphylococcus aureus; 21 h) was 10 µg/mL (≈ 40.9 µM). For the same compound, the MIC (Staphylococcus aureus; ATCC25923, 21 h, No. 1, ATCC 25923) was 10 µg/mL (≈ 40.9 µM), the MIC (Staphylococcus aureus; ATCC29213, 21 h, No. 5, ATCC 29213) was 10 µg/mL (≈ 40.9 µM) and the MIC (Candida [2]; No. 22, strain 01) was 0.016 µg/mL (≈ 0.0655 µM). The MIC (Candida [2]; No. 23, strain 02) was 0.016 µg/mL (≈ 0.0655 µM), the MIC (Candida [2]; No. 24, strain 03) was 0.064 µg/mL (≈ 0.262 µM) and the MIC (Candida [2]; No. 25, strain R4197) was 0.016 µg/mL (≈ 0.0655 µM). It also gave an MIC (Candida [2]; No. 32, strain F617) of 0.008 µg/mL (≈ 0.0327 µM), an MIC (Enterobacter aerogenes) of 10 µg/mL (≈ 40.9 µM) and an MIC (Streptococcus faecalis) of 10 µg/mL (≈ 40.9 µM). For the same compound, the MIC (Aspergillus [3]; No. 21, strain 05) was 0.032 µg/mL (≈ 0.131 µM), the MIC (Aspergillus [3]; No. 34, strain F604) was 0.064 µg/mL (≈ 0.262 µM) and the Light sensitivity [4] was “light sensitive and breaks down under light to the corresponding thiophene”. For the same compound, the selectivity ratio at 24 h [5] was 800, the IC50 (3T3) was 0.48 µg/mL (≈ 1.96 µM) and the IC50 (E. coli) was 0.02 µg/mL (≈ 0.0819 µM). It also gave an IC50 (C. albicans [6]; 0 hrs., 37° C., read-out: LC50 24 Hrs.) of 0.007 µg/mL (≈ 0.0286 µM), an IC50 (C. albicans [6]; 0 hrs., room temperature, read-out: LC50 24 Hrs.) of 0.007 µg/mL (≈ 0.0286 µM) and an IC50 (C. albicans [6]; 0.5 hrs., 37° C., read-out: LC50 24 Hrs.) of 0.02 µg/mL (≈ 0.0819 µM). It also gave an IC50 (C. albicans [6]; 0.5 hrs., room temperature, read-out: LC50 24 Hrs.) of 0.016 µg/mL (≈ 0.0655 µM), an IC50 (C. albicans [6]; 2 hrs., 37° C., read-out: LC50 24 Hrs.) of 0.033 µg/mL (≈ 0.135 µM) and an IC50 (C. albicans [6]; 2 hrs., room temperature, read-out: LC50 24 Hrs.) of 0.022 µg/mL (≈ 0.09 µM). The IC50 (C. albicans [6]; 6 hrs., 37° C., read-out: LC50 24 Hrs.) was 0.085 µg/mL (≈ 0.348 µM), the IC50 (C. albicans [6]; 6 hrs., room temperature, read-out: LC50 24 Hrs.) was 0.042 µg/mL (≈ 0.172 µM) and the IC50 (C. albicans [6]; 24 h, 37° C.) was 0.21 µg/mL (≈ 0.859 µM). For the same compound, the IC50 (C. albicans [6]; 24 h, room temperature) was 0.11 µg/mL (≈ 0.45 µM), the Anti-bacterial (bacteria) was “Y” and the Anti-Candida (Candida [7]) was “Y”. For the same compound, the IC50 (C. albicans [8]; 0 mins. exposure to bench cool white light, read-out: LC50 (24 hrs.)) was 0.007 µg/mL (≈ 0.0286 µM), the IC50 (C. albicans [8]; 5 mins. exposure to bench cool white light, read-out: LC50 (24 hrs.)) was 0.012 µg/mL (≈ 0.0491 µM) and the IC50 (C. albicans [8]; 15 mins. exposure to bench cool white light, read-out: LC50 (24 hrs.)) was 0.026 µg/mL (≈ 0.106 µM). It also gave an IC50 (C. albicans [8]; 0.5 hrs. exposure to bench cool white light, read-out: LC50 (24 hrs.)) of 0.14 µg/mL (≈ 0.573 µM), an IC50 (C. albicans [8]; 24 h, read-out: LC50 (24 hrs.), 24 hrs. exposure to bench cool white light) of 5 µg/mL (≈ 20.5 µM) and an IC50 (C. albicans [8]; read-out: LC50 (24 hrs.), 6 hrs. exposure to bench cool white light) of 5 µg/mL (≈ 20.5 µM). For the same compound, the “Inhibition of growth of Candida albicans” value (C. albicans [9]) was “nanogram/ml range”, the IC50 (C. albicans [9]; Candida albicans, 24 hrs., Table 7, read-out: LC50 (24 hrs.), dose required to inhibit growth in 50%) was 0.007 µg/mL (≈ 0.0286 µM) and the Anti-Aspergillus (Aspergillus [10]) was “Y”. The IC50 (C. albicans [11]; Table 1, read-out: Concentration causing 50% growth inhibition) was 0.0006 µg/mL (≈ 0.00246 µM) and the IC50 (C. albicans [11]; Table 4, read-out: Minimal concentration causing 50% growth inhibition) was 0.0006 µg/mL (≈ 0.00246 µM).
